The results in this text go back to patent publication US12263171B2, “7-, 8-, and 10-substituted amino triazolo quinazoline derivatives as adenosine receptor antagonists, pharmaceutical compositions and their use” (Merck Sharp & Dohme LLC, priority 2018, dated 2025).

In experiment [1] the target is human A2a adenosine receptor (Homo sapiens (Human), UniProt P29274). The experiment in a line: A2a receptor affinity radioligand binding assay ([3H] SCH58261, membranes from HEK293 or CHO cells). The note with it: unstarred values: radioligand binding. The method in brief:
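Displacement of tritiated SCH58261 (working dilution 4 nM) from recombinant human A2a receptor membranes (HEK293 or CHO), 60 min at room temperature in Tris pH 7.4/MgCl2 buffer after 15–30 min compound preincubation. Scintillation counting after filtration; normalized percent effect fitted 4-parameter logistic for IC50.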

Experiment [2] addresses T1, human A2b adenosine receptor (Homo sapiens (Human), UniProt P29275). The experiment in a line: A2B antagonism in cAMP cell-based assay (LANCE cAMP, HEK293 cells, 600 nM adenosine). The note with it: for IC50: values marked *: cAMP cell-based assay; for *A2B cAMP ^ % @ 10000 nM: printed with ^ and without inh. How it is done:
Measurement of A2A and A2B Antagonism in cAMP Cell-Based Assay
All subsequent liquid additions were performed using a multichannel pipettor. […] After this time 5 μL of either 300 nM or 600 nM adenosine (Sigma Cat. No. A9251) for A2A and A2B respectively was added and incubated for 30 minutes at 37° C. and 5% CO2 in a humidified environment. At this time detection mix was prepared by combining the LANCE Eu-W8044 labeled streptavidin and. Biotin-cAMP in detection buffer according to the manufacturers protocol. […] Curve fitting of the percent effect data versus the log of compound concentration used a 4-parameter concentration response curve fitting algorithm to calculate IC50 values.

The target in experiment [3] is T1, human A2b adenosine receptor. The experiment in a line: A2b radioligand filtration binding assay (tritiated proprietary A2b antagonist, HEK293 membranes). The note with it: unstarred values: radioligand binding. Summed up: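 Displacement of a tritiated proprietary A2b antagonist from membranes of HEK293 cells recombinantly expressing human A2b receptor, measured by filtration and scintillation counting. Percent effect was normalized to total and non-specific binding and fitted with a 4-parameter logistic to give IC50.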

human A2a adenosine receptor, sequence (P29274 whole entry): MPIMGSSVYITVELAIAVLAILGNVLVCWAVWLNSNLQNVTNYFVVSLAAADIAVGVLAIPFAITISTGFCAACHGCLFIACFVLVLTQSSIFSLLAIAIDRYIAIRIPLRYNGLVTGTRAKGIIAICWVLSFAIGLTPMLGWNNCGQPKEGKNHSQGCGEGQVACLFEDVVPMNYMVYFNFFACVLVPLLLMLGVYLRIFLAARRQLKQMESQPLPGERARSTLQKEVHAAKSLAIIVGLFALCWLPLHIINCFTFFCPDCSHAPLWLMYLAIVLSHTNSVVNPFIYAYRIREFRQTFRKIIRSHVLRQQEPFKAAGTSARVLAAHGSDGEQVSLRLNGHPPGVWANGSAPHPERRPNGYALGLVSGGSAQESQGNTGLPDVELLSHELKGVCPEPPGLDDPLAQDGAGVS
T1 sequence (P29275 whole entry): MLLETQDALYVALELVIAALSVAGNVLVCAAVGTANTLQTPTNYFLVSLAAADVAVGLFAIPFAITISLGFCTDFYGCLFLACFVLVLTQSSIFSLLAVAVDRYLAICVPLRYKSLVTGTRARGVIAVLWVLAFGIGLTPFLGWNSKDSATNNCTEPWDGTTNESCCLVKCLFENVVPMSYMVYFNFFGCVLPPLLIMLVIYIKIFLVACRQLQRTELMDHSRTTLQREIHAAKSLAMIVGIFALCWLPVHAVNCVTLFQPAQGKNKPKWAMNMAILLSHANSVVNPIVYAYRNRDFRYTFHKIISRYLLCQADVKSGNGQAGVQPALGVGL

By IC50 is commonly meant the point on the concentration scale where inhibition reaches its midpoint. Low readings indicate greater potency in that assay, high ones weaker potency in that assay. Take `COc1cccc2c1nc(N)n1nc([C@@H]3CCCN(c4c(C)nn(C)c4C)C3)nc21` [Example 11, (R)-7-methoxy-2-(1-(1,3,5-trimethyl-1H-pyrazol-4-yl)piperidin-3-yl)-[1,2,4]triazolo[1,5-c]quinazolin-5-amine]: the figures for the 50% inhibitory concentration (IC50) in experiment [1] and in experiment [2] were 0.8 nM and 3700 nM, respectively.
As to `COc1cccc2c1nc(N)n1nc([C@@H]3CCCN(c4cnn(CC5(O)CCCC5)c4)C3)nc21` [Example 41, (R)-1-((4-(3-(5-amino-7-methoxy-[1,2,4]triazolo[1,5-c]quinazolin-2-yl)piperidin-1-yl)-1H-pyrazol-1-yl)methyl)cyclopentan-1-ol], the results for the IC50 in experiment [1] and in experiment [2] were 0.8 nM and 22.2 nM, respectively.
For `COc1cccc2c1nc(N)n1nc([C@@H]3CCN(c4cnn(C5CC5)c4)C3)nc21` [Example 161, (R)-2-(1-(1-cyclopropyl-1H-pyrazol-4-yl)pyrrolidin-3-yl)-7-methoxy-[1,2,4]triazolo[1,5-c]quinazolin-5-amine] the same measures were 13.2 nM and 231 nM.
For `COc1ccc2c(c1)nc(N)n1nc([C@@H]3CC[C@H](C)N(c4cn(CC(C)(C)O)nc4C)C3)nc21` [Example 213, 1-(4-((2S,5R)-5-(5-amino-8-methoxy-[1,2,4]triazolo[1,5-c]quinazolin-2-yl)-2-methylpiperidin-1-yl)-3-methyl-1H-pyrazol-1-yl)-2-methylpropan-2-ol] the same measures were 0.4 nM and 27.6 nM.
`COc1cccc2c1nc(N)n1nc([C@@H]3CCCN(c4cccc(C(F)(F)F)c4)C3)nc21` [Example 114, (R)-7-methoxy-2-(1-(3-(trifluoromethyl)phenyl)piperidin-3-yl)-[1,2,4]triazolo[1,5-c]quinazolin-5-amine]: the IC50 in experiment [1] came to 1.7 nM; in experiment [2], 370 nM.
Turning to `COc1cccc2c1nc(N)n1nc([C@@H]3CCCN(c4cnn(CC5CC5)c4)C3)nc21` [Example 16, (R)-2-(1-(1-(cyclopropylmethyl)-1H-pyrazol-4-yl)piperidin-3-yl)-7-methoxy-[1,2,4]triazolo[1,5-c]quinazolin-5-amine], the 50% inhibitory concentration (IC50) was found to be 0.8 nM in experiment [1] and 92.8 nM in experiment [2].
As to `COc1cccc2c1nc(N)n1nc(C3CCC(C)N(c4cnn(CC(F)(F)F)c4)C3)nc21` (single isomer, unassigned) [Example 142B, 7-methoxy-2-((3R,6R or 3S,6S)-6-methyl-1-(1-(2,2,2-trifluoroethyl)-1H-pyrazol-4-yl)piperidin-3-yl)-[1,2,4]triazolo[1,5-c]quinazolin-5-amine], the IC50 was 0.8 nM in experiment [1] and 1150 nM in experiment [2].
For `COc1cccc2c1nc(N)n1nc([C@H]3C[C@@H](F)CN(c4cnn(C5CC5)c4)C3)nc21` [Example 148A] the same measures were 1 nM and 234 nM.
In experiment [1], `COc1cccc2c1nc(N)n1nc([C@@H]3CCCN(c4cnccc4C(F)(F)F)C3)nc21` [Example 108, (R)-7-methoxy-2-(1-(4-(trifluoromethyl)pyridin-3-yl)piperidin-3-yl)-[1,2,4]triazolo[1,5-c]quinazolin-5-amine] yielded an IC50 of 12.1 nM. Moreover, in experiment [2] (@ 10000 nM, marked *), the “*A2B cAMP % inh. @ 10000 nM” value worked out at 18% inh. @ 10000 nM*.
As to `Nc1nc2c(OC(F)F)cccc2c2nc([C@@H]3CCCN(c4cnn(C5CC5)c4)C3)nn12` [Example 125, (R)-2-(1-(1-cyclopropyl-1H-pyrazol-4-yl)piperidin-3-yl)-7-(difluoromethoxy)-[1,2,4]triazolo[1,5-c]quinazolin-5-amine], the half-maximal inhibitory concentration (IC50) stood at 7.7 nM in experiment [1] and 1280 nM in experiment [2].
Regarding `COc1ccc2c(c1)nc(N)n1nc([C@@H]3CCCN(c4cnn([C@@H](C)[C@@H](C)O)c4)C3)nc21` [Example 221A, (2R,3S)-3-(4-((R)-3-(5-amino-8-methoxy-[1,2,4]triazolo[1,5-c]quinazolin-2-yl)piperidin-1-yl)-1H-pyrazol-1-yl)butan-2-ol], the IC50 in experiment [1] turned out to be 1.92 nM; in experiment [2], 61 nM.
Regarding `Cn1cc(N2CCCC(c3nc4c5cccc(Cl)c5nc(N)n4n3)C2)cn1` (single isomer, unassigned) [Example 132A], the IC50 in experiment [1] is 18.6 nM. Besides, in experiment [2] (@ 10000 nM, marked *), the “*A2B cAMP ^ % @ 10000 nM” value is 31% @ 10000 nM*.
Consider `COc1cccc2c1nc(N)n1nc([C@@H]3CCCN(c4cncc(F)c4)C3)nc21` [Example 113, (R)-2-(1-(5-fluoropyridin-3-yl)piperidin-3-yl)-7-methoxy-[1,2,4]triazolo[1,5-c]quinazolin-5-amine], for which the IC50 in experiment [1] amounted to 0.6 nM; in experiment [2], 209 nM.
On the same counts, the results for `COc1cccc2c1nc(N)n1nc([C@@H]3CCCN(c4cnn(CC(C)(C)OC)c4)C3)nc21` [Example 22, (R)-7-methoxy-2-(1-(1-(2-methoxy-2-methylpropyl)-1H-pyrazol-4-yl)piperidin-3-yl)-[1,2,4]triazolo[1,5-c]quinazolin-5-amine] are 1.6 nM and 102 nM.
For `COc1cccc2c1nc(N)n1nc([C@@H]3CCCN(c4ncn(C)n4)C3)nc21` [Example 83, (R)-7-methoxy-2-(1-(1-methyl-1H-1,2,4-triazol-3-yl)piperidin-3-yl)-[1,2,4]triazolo[1,5-c]quinazolin-5-amine], the IC50 in experiment [1] was 0.8 nM; in experiment [2] it was 78.3 nM.
On the same counts, the results for `COc1cccc2c1nc(N)n1nc([C@@H]3CCCN(c4cnc(C5CC5)n4C)C3)nc21` [Example 84, (R)-2-(1-(2-cyclopropyl-1-methyl-1H-imidazol-5-yl)piperidin-3-yl)-7-methoxy-[1,2,4]triazolo[1,5-c]quinazolin-5-amine] are 1.6 nM and 187 nM.
On the same counts, the results for `CCC(O)(CC)Cn1cc(N2CCC[C@@H](c3nc4c5cccc(OC)c5nc(N)n4n3)C2)cn1` [Example 40] are 3.1 nM and 19.7 nM.
On the same counts, the results for `CC[C@H]1CC[C@H](c2nc3c4cccc(OC)c4nc(N)n3n2)CN1c1cnn(CC(C)(C)O)c1` [Example 216B, 1-(4-((2S,5S)-5-(5-amino-7-methoxy-[1,2,4]triazolo[1,5-c]quinazolin-2-yl)-2-ethylpiperidin-1-yl)-1H-pyrazol-1-yl)-2-methylpropan-2-ol] are 0.4 nM and 6.6 nM.
Compound `COc1cccc2c1nc(N)n1nc([C@@H]3CCCN(c4ncc(C(F)(F)F)cn4)C3)nc21` [Example 109, (R)-7-methoxy-2-(1-(5-(trifluoromethyl)pyrimidin-2-yl)piperidin-3-yl)-[1,2,4]triazolo[1,5-c]quinazolin-5-amine] gave a half-maximal inhibitory concentration (IC50) in experiment [1] of 52.6 nM. Moreover, in experiment [2] (@ 10000 nM, marked *), the “*A2B cAMP ^ % @ 10000 nM” value is given as 22% @ 10000 nM*.
`COc1ccc2c(c1)nc(N)n1nc([C@@H]3CCCN(c4cnn(C(C)(C)[C@H](C)O)c4)C3)nc21` [Example 225A]: the 50% inhibitory concentration (IC50) was found to be 1.2 nM in experiment [1] and 32.2 nM in experiment [2].
For `CC[C@H]1CC[C@@H](c2nc3c4cccc(OC)c4nc(N)n3n2)CN1c1cnn(CC(C)(C)O)c1` [Example 216C, 1-(4-((2S,5R)-5-(5-amino-7-methoxy-[1,2,4]triazolo[1,5-c]quinazolin-2-yl)-2-ethylpiperidin-1-yl)-1H-pyrazol-1-yl)-2-methylpropan-2-ol] the same measures were 23.5 nM and 292 nM.
On to `Cn1cc(N2CCCC(c3nc4c5cccc(Cl)c5nc(N)n4n3)C2)cn1` (single isomer, unassigned) [Example 132B], for which the IC50 in experiment [1] amounted to 3.9 nM; in experiment [2], 205 nM.
Turning to `COc1cccc2c1nc(N)n1nc(C3CCC(C)N(c4cnn(C5CC5)c4)C3)nc21` (single isomer, unassigned) [Example 141A], the concentration for half-maximal inhibition (IC50) in experiment [1] was determined as 2.2 nM; in experiment [2], 712 nM.
With `COc1cccc2c1nc(N)n1nc([C@@H]3CCCN(c4cnn(C)c4C)C3)nc21` [Example 10, (R)-2-(1-(1,5-dimethyl-1H-pyrazol-4-yl)pipiperidin-3-yl)-7-methoxy-[1,2,4]triazolo[1,5-c]quinazolin-5-amine], the 50% inhibitory concentration (IC50) came out at 1.5 nM in experiment [1] and 252 nM in experiment [2].
With `CCn1ccc(N2CCC[C@@H](c3nc4c5cccc(OC)c5nc(N)n4n3)C2)cc1=O` [Example 91, (R)-4-(3-(5-amino-7-methoxy-[1,2,4]triazolo[1,5-c]quinazolin-2-yl)piperidin-1-yl)-1-ethylpyridin-2(1H)-one], the IC50 in experiment [1] was found to be 1.8 nM; in experiment [2], 775 nM.
For the compound `COc1cccc2c1nc(N)n1nc([C@@H]3CCCN(c4cnn5c4CCC5)C3)nc21` [Example 13, (R)-2-(1-(5,6-dihydro-4H-pyrrolo[1,2-b]pyrazol-3-yl)piperidin-3-yl)-7-methoxy-[1,2,4]triazolo[1,5-c]quinazolin-5-amine], the IC50 in experiment [1] came out at 0.9 nM; in experiment [2] it was 112 nM.
Take `COc1cccc2c1nc(N)n1nc([C@@H]3CCCN(c4cnc(C)cn4)C3)nc21` [Example 106, (R)-7-methoxy-2-(1-(5-methylpyrazin-2-yl)piperidin-3-yl)-[1,2,4]triazolo[1,5-c]quinazolin-5-amine]: the IC50 turned out to be 0.1 nM in experiment [1] and 245 nM in experiment [3].
